{"source": "patent US7776858B2", "about": "“Methods of treatment of chronic pain using eszopiclone” (Sepracor Inc., priority 2004, dated 2010)", "key": {"[1]": {"test_system": "subjects with insomnia related to rheumatoid arthritis", "assay": "Arthritis Self-Efficacy Scale, clinical study of eszopiclone 3 mg vs placebo", "type": "in vivo, human", "conditions": "3 mg nightly, ITT; for Arthritis Self-Efficacy Scale Function, Change from Baseline, Least Squares Means (SE) [2] / Arthritis Self-Efficacy Scale Other Symptoms, Change from Baseline, Least Squares Means (SE) [2] / Arthritis Self-Efficacy Scale Overall, Change from Baseline, Least Squares Means (SE) [2] / Arthritis Self-Efficacy Scale Pain and Other Symptoms, Change from Baseline, Least Squares Means (SE) [2] / Arthritis Self-Efficacy Scale Pain, Change from Baseline, Least Squares Means (SE) [2]: ANCOVA", "procedure": "The study was aimed at observing the effect of eszopiclone 3 mg compared to placebo on daytime function in subjects with insomnia related to rheumatoid arthritis. The study was a multicenter, randomized, double-blind, placebo controlled, parallel group study.\nA total of 153 subjects were randomized. Among them, 77 received 3 mg of eszopiclone (ESZ) nightly (at bedtime) for four weeks and 76 received matching placebo (PBO). […] In addition, subjects had insomnia symptoms including wake time after sleep onset (WASO) of ≧45 minutes, and total sleep time ≦6.5 hours. Diagnosis of rheumatoid arthritis predated the onset of insomnia symptoms.\nDuring the double blind treatment, subjects were dosed with 3 mg eszopiclone (ESZ) or matching placebo (PBO) nightly (at bedtime) for four weeks. Data was analyzed with one-sided significance tests."}, "mice": {"test_system": "mice", "assay": "Antagonism of oxotremorine induced salivation", "type": "in vivo", "conditions": "doses up to 300 mg/kg, p.o.", "procedure": "Eszopiclone was evaluated for antimuscarinic activity in vivo."}, "conscious dogs": {"test_system": "conscious dogs", "assay": "Dose escalation safety study, cardiovascular and respiratory parameters after acute intravenous administration", "conditions": "acute intravenous, 3, 5 and 12 mg/kg", "procedure": "To establish the safety of eszopiclone, a dose escalation study was carried out. Cardiovascular and respiratory parameters were evaluated in conscious dogs following acute intravenous administration of (R)-, (S)- or racemic zopiclone at three doses (3, 5 and 12 mg/kg)."}}, "data": [{"smiles": "CN1CCN(C(=O)O[C@H]2c3nccnc3C(=O)N2c2ccc(Cl)cn2)CC1", "note": "[Eszopiclone, (+) 6-(5-chloropyrid-2-yl)-5-(4-methylpiperazin-1-yl)carbonyloxy-7-oxo-6,7-dihydro-5H-pyrrolo[3-4-b]pyrazine]", "values": [{"measurement": "Arthritis Self-Efficacy Scale Pain, Observed Value, Minimum", "setting": "[1]; visit 5 (Week 4)", "result": 8.0}, {"measurement": "Arthritis Self-Efficacy Scale Function, Change from Baseline, Least Squares Means (SE) [2]", "setting": "[1]; visit 5 (Week 4)", "result": "4.2 (1.7)"}, {"measurement": "Arthritis Self-Efficacy Scale Other Symptoms, Change from Baseline, Least Squares Means (SE) [2]", "setting": "[1]; visit 5 (Week 4)", "result": "3.4 (1.2)"}, {"measurement": "Arthritis Self-Efficacy Scale Overall, Change from Baseline, Least Squares Means (SE) [2]", "setting": "[1]; visit 5 (Week 4)", "result": "10.4 (3.2)"}, {"measurement": "Arthritis Self-Efficacy Scale Pain and Other Symptoms, Change from Baseline, Least Squares Means (SE) [2]", "setting": "[1]; visit 5 (Week 4)", "result": "6.6 (1.9)"}, {"measurement": "Arthritis Self-Efficacy Scale Pain, Change from Baseline, Least Squares Means (SE) [2]", "setting": "[1]; visit 5 (Week 4)", "result": "3.1 (1.0)"}, {"measurement": "Arthritis Self-Efficacy Scale Function, Change from Baseline, 25th Percentile", "setting": "[1]; visit 6 (EOS)", "result": "−1.0"}, {"measurement": "Arthritis Self-Efficacy Scale Function, Change from Baseline, 75th Percentile", "setting": "[1]; visit 6 (EOS)", "result": 14.0}, {"measurement": "Arthritis Self-Efficacy Scale Function, Change from Baseline, Maximum", "setting": "[1]; visit 6 (EOS)", "result": 58.0}, {"measurement": "Arthritis Self-Efficacy Scale Function, Change from Baseline, Mean (SD)", "setting": "[1]; visit 6 (EOS)", "result": "6.8 (15.6)"}, {"measurement": "Arthritis Self-Efficacy Scale Function, Change from Baseline, Median", "setting": "[1]; visit 6 (EOS)", "result": 5.0}, {"measurement": "Arthritis Self-Efficacy Scale Function, Change from Baseline, Minimum", "setting": "[1]; visit 6 (EOS)", "result": "−45.0"}, {"measurement": "Arthritis Self-Efficacy Scale Function, Observed Value, 25th Percentile", "setting": "[1]; visit 6 (EOS)", "result": 45.0}, {"measurement": "Arthritis Self-Efficacy Scale Function, Observed Value, 75th Percentile", "setting": "[1]; visit 6 (EOS)", "result": 85.0}, {"measurement": "Arthritis Self-Efficacy Scale Function, Observed Value, Maximum", "setting": "[1]; visit 6 (EOS)", "result": 90.0}, {"measurement": "Arthritis Self-Efficacy Scale Function, Observed Value, Mean (SD)", "setting": "[1]; visit 6 (EOS)", "result": "64.1 (20.5)"}, {"measurement": "Arthritis Self-Efficacy Scale Function, Observed Value, Median", "setting": "[1]; visit 6 (EOS)", "result": 65.0}, {"measurement": "Arthritis Self-Efficacy Scale Function, Observed Value, Minimum", "setting": "[1]; visit 6 (EOS)", "result": 23.0}, {"measurement": "Arthritis Self-Efficacy Scale Other Symptoms, Change from Baseline, 25th Percentile", "setting": "[1]; visit 6 (EOS)", "result": "−2.5"}, {"measurement": "Arthritis Self-Efficacy Scale Other Symptoms, Change from Baseline, 75th Percentile", "setting": "[1]; visit 6 (EOS)", "result": 10.0}, {"measurement": "Arthritis Self-Efficacy Scale Other Symptoms, Change from Baseline, Maximum", "setting": "[1]; visit 6 (EOS)", "result": 39.0}, {"measurement": "Arthritis Self-Efficacy Scale Other Symptoms, Change from Baseline, Mean (SD)", "setting": "[1]; visit 6 (EOS)", "result": "3.8 (10.7)"}, {"measurement": "Arthritis Self-Efficacy Scale Other Symptoms, Change from Baseline, Median", "setting": "[1]; visit 6 (EOS)", "result": 3.0}, {"measurement": "Arthritis Self-Efficacy Scale Other Symptoms, Change from Baseline, Minimum", "setting": "[1]; visit 6 (EOS)", "result": "−24.0"}, {"measurement": "Arthritis Self-Efficacy Scale Other Symptoms, Observed Value, 25th Percentile", "setting": "[1]; visit 6 (EOS)", "result": 31.0}, {"measurement": "Arthritis Self-Efficacy Scale Other Symptoms, Observed Value, 75th Percentile", "setting": "[1]; visit 6 (EOS)", "result": 51.0}, {"measurement": "Arthritis Self-Efficacy Scale Other Symptoms, Observed Value, Maximum", "setting": "[1]; visit 6 (EOS)", "result": 59.0}, {"measurement": "Arthritis Self-Efficacy Scale Other Symptoms, Observed Value, Mean (SD)", "setting": "[1]; visit 6 (EOS)", "result": "40.6 (12.6)"}, {"measurement": "Arthritis Self-Efficacy Scale Other Symptoms, Observed Value, Median", "setting": "[1]; visit 6 (EOS)", "result": 41.5}, {"measurement": "Arthritis Self-Efficacy Scale Other Symptoms, Observed Value, Minimum", "setting": "[1]; visit 6 (EOS)", "result": 8.0}, {"measurement": "Arthritis Self-Efficacy Scale Overall, Change from Baseline, 25th Percentile", "setting": "[1]; visit 6 (EOS)", "result": "−3.0"}, {"measurement": "Arthritis Self-Efficacy Scale Overall, Change from Baseline, 75th Percentile", "setting": "[1]; visit 6 (EOS)", "result": 32.0}, {"measurement": "Arthritis Self-Efficacy Scale Overall, Change from Baseline, Maximum", "setting": "[1]; visit 6 (EOS)", "result": 84.0}, {"measurement": "Arthritis Self-Efficacy Scale Overall, Change from Baseline, Mean (SD)", "setting": "[1]; visit 6 (EOS)", "result": "14.0 (30.5)"}, {"measurement": "Arthritis Self-Efficacy Scale Overall, Change from Baseline, Median", "setting": "[1]; visit 6 (EOS)", "result": 12.5}, {"measurement": "Arthritis Self-Efficacy Scale Overall, Change from Baseline, Minimum", "setting": "[1]; visit 6 (EOS)", "result": "−89.0"}, {"measurement": "Arthritis Self-Efficacy Scale Overall, Observed Value, 25th Percentile", "setting": "[1]; visit 6 (EOS)", "result": 111.0}, {"measurement": "Arthritis Self-Efficacy Scale Overall, Observed Value, 75th Percentile", "setting": "[1]; visit 6 (EOS)", "result": 163.0}, {"measurement": "Arthritis Self-Efficacy Scale Overall, Observed Value, Maximum", "setting": "[1]; visit 6 (EOS)", "result": 193.0}, {"measurement": "Arthritis Self-Efficacy Scale Overall, Observed Value, Mean (SD)", "setting": "[1]; visit 6 (EOS)", "result": "134.5 (35.9)"}, {"measurement": "Arthritis Self-Efficacy Scale Overall, Observed Value, Median", "setting": "[1]; visit 6 (EOS)", "result": 133.0}, {"measurement": "Arthritis Self-Efficacy Scale Overall, Observed Value, Minimum", "setting": "[1]; visit 6 (EOS)", "result": 50.0}, {"measurement": "Arthritis Self-Efficacy Scale Pain and Other Symptoms, Change from Baseline, 25th Percentile", "setting": "[1]; visit 6 (EOS)", "result": "−5.0"}, {"measurement": "Arthritis Self-Efficacy Scale Pain and Other Symptoms, Change from Baseline, 75th Percentile", "setting": "[1]; visit 6 (EOS)", "result": 17.0}, {"measurement": "Arthritis Self-Efficacy Scale Pain and Other Symptoms, Change from Baseline, Maximum", "setting": "[1]; visit 6 (EOS)", "result": 52.7}, {"measurement": "Arthritis Self-Efficacy Scale Pain and Other Symptoms, Change from Baseline, Mean (SD)", "setting": "[1]; visit 6 (EOS)", "result": "7.0 (18.5)"}, {"measurement": "Arthritis Self-Efficacy Scale Pain and Other Symptoms, Change from Baseline, Median", "setting": "[1]; visit 6 (EOS)", "result": 7.5}, {"measurement": "Arthritis Self-Efficacy Scale Pain and Other Symptoms, Change from Baseline, Minimum", "setting": "[1]; visit 6 (EOS)", "result": "−44.0"}, {"measurement": "Arthritis Self-Efficacy Scale Pain and Other Symptoms, Observed Value, 25th Percentile", "setting": "[1]; visit 6 (EOS)", "result": 55.0}, {"measurement": "Arthritis Self-Efficacy Scale Pain and Other Symptoms, Observed Value, 75th Percentile", "setting": "[1]; visit 6 (EOS)", "result": 88.0}, {"measurement": "Arthritis Self-Efficacy Scale Pain and Other Symptoms, Observed Value, Maximum", "setting": "[1]; visit 6 (EOS)", "result": 107.0}, {"measurement": "Arthritis Self-Efficacy Scale Pain and Other Symptoms, Observed Value, Mean (SD)", "setting": "[1]; visit 6 (EOS)", "result": "70.0 (21.0)"}, {"measurement": "Arthritis Self-Efficacy Scale Pain and Other Symptoms, Observed Value, Median", "setting": "[1]; visit 6 (EOS)", "result": 71.0}, {"measurement": "Arthritis Self-Efficacy Scale Pain and Other Symptoms, Observed Value, Minimum", "setting": "[1]; visit 6 (EOS)", "result": 27.0}, {"measurement": "Arthritis Self-Efficacy Scale Pain, Change from Baseline, 25th Percentile", "setting": "[1]; visit 6 (EOS)", "result": "−4.0"}, {"measurement": "Arthritis Self-Efficacy Scale Pain, Change from Baseline, 75th Percentile", "setting": "[1]; visit 6 (EOS)", "result": 8.0}, {"measurement": "Arthritis Self-Efficacy Scale Pain, Change from Baseline, Maximum", "setting": "[1]; visit 6 (EOS)", "result": 35.0}, {"measurement": "Arthritis Self-Efficacy Scale Pain, Change from Baseline, Mean (SD)", "setting": "[1]; visit 6 (EOS)", "result": "2.7 (10.5)"}, {"measurement": "Arthritis Self-Efficacy Scale Pain, Change from Baseline, Median", "setting": "[1]; visit 6 (EOS)", "result": 2.0}, {"measurement": "Arthritis Self-Efficacy Scale Pain, Change from Baseline, Minimum", "setting": "[1]; visit 6 (EOS)", "result": "−20.0"}, {"measurement": "Arthritis Self-Efficacy Scale Pain, Observed Value, 25th Percentile", "setting": "[1]; visit 6 (EOS)", "result": 22.0}, {"measurement": "Arthritis Self-Efficacy Scale Pain, Observed Value, 75th Percentile", "setting": "[1]; visit 6 (EOS)", "result": 37.0}, {"measurement": "Arthritis Self-Efficacy Scale Pain, Observed Value, Maximum", "setting": "[1]; visit 6 (EOS)", "result": 49.0}, {"measurement": "Arthritis Self-Efficacy Scale Pain, Observed Value, Mean (SD)", "setting": "[1]; visit 6 (EOS)", "result": "29.2 (9.8)"}, {"measurement": "Arthritis Self-Efficacy Scale Pain, Observed Value, Median", "setting": "[1]; visit 6 (EOS)", "result": 30.0}, {"measurement": "Arthritis Self-Efficacy Scale Pain, Observed Value, Minimum", "setting": "[1]; visit 6 (EOS)", "result": 9.0}, {"measurement": "Arthritis Self-Efficacy Scale Function, Change from Baseline, Least Squares Means (SE) [2]", "setting": "[1]; visit 6 (EOS)", "result": "6.2 (1.6)"}, {"measurement": "Arthritis Self-Efficacy Scale Other Symptoms, Change from Baseline, Least Squares Means (SE) [2]", "setting": "[1]; visit 6 (EOS)", "result": "3.3 (1.1)"}, {"measurement": "Arthritis Self-Efficacy Scale Overall, Change from Baseline, Least Squares Means (SE) [2]", "setting": "[1]; visit 6 (EOS)", "result": "12.4 (2.9)"}, {"measurement": "Arthritis Self-Efficacy Scale Pain and Other Symptoms, Change from Baseline, Least Squares Means (SE) [2]", "setting": "[1]; visit 6 (EOS)", "result": "6.1 (1.8)"}, {"measurement": "Arthritis Self-Efficacy Scale Pain, Change from Baseline, Least Squares Means (SE) [2]", "setting": "[1]; visit 6 (EOS)", "result": "2.4 (0.9)"}, {"measurement": "antagonism of oxotremorine induced salivation", "setting": "mice", "result": "neither (R)-, (S)-, nor racemic zopiclone significantly antagonized"}, {"measurement": "Blood gases and blood chemistries (pH, pCO2, pO2, hematocrit, and lactate)", "setting": "conscious dogs", "result": "remained unaffected"}, {"measurement": "cardiotoxicity by electrocardiogram (ECG)", "setting": "conscious dogs", "result": "No evidence of cardiotoxicity"}, {"measurement": "effect on blood pressure", "setting": "conscious dogs", "result": "dose dependent, transient decreases"}, {"measurement": "effect on heart rate", "setting": "conscious dogs", "result": "compensatory increase"}]}]}
